Data on 53 molecules can be found in patent US11414422B2, “Substituted pyrido[4,3-b]indoles and azepino[4,5-b]indoles as inhibitors of cGAS” (The Rockefeller University, priority 2018, dated 2022).

SMILES strings stand for the structures.

One experiment addresses T1, h-cGAS (Homo sapiens, UniProt Q8N884).
T1 construct: The final concentration of full-length h-cGAS, dsDNA, ATP, and GTP were 100 nM
Kind of experiment: cGAS biochemical assay, RapidFire 365 mass spectrometry (RF-MS). As to conditions: full-length h-cGAS 100 nM, dsDNA 25 nM, ATP and GTP 100 μM, 7 h at RT.

The subject of a further experiment is THP1-Dual cells. Briefly: Cell-based Lucia luciferase assay in THP1-Dual cells (dsDNA transfection). The note with it: Homo sapiens, 1 h pre-incubation, 100-bp dsDNA transfection for 24 h.

T1 sequence (Q8N884 whole entry): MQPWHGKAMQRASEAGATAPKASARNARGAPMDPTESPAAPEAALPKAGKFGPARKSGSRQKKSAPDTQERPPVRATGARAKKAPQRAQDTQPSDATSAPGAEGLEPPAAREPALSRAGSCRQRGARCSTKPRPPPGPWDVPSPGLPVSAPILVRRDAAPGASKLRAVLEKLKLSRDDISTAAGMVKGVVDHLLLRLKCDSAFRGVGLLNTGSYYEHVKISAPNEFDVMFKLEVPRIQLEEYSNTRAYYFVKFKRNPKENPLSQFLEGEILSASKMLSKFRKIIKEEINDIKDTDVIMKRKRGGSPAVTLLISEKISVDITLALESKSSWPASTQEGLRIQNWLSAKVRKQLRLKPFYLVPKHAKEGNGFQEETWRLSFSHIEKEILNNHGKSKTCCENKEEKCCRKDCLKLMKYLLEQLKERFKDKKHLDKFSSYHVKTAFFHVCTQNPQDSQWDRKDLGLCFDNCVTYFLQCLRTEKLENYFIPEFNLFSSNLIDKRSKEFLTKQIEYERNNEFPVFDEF

One may read the IC50 as the concentration needed to halve the response being measured. Read a high IC50 as lower potency. On to `O=C(CO)N1CCc2[nH]c3c(F)c(Cl)cc(N4CCC(F)(F)C4)c3c2C1` [TDI-008866], for which the half-inhibitory concentration (IC50) is 452 nM at h-cGAS and > 10000 nM in the experiment on THP1-Dual cells.
For `Cc1nnc(-c2cc(Cl)c(Cl)c3[nH]c4c(c23)CN(C(=O)CO)CC4)o1` [TDI-008777], the 50% inhibitory concentration (IC50) was 30.5 nM against h-cGAS and 12900 nM with THP1-Dual cells.
Turning to `O=C(CO)N1CCc2[nH]c3c(Cl)c(Cl)cc(-c4cnn5ccccc45)c3c2C1` [TDI-008116], the half-maximal inhibitory concentration (IC50) against h-cGAS worked out at 25.2 nM; in the experiment on THP1-Dual cells, 6430 nM.
With `C[C@H]1CN(C(=O)CO)Cc2c1[nH]c1c(F)c(Cl)cc(-c3ccn(C)n3)c21` [TDI-009001], the figures for the 50% inhibitory concentration (IC50) on h-cGAS and in the experiment on THP1-Dual cells were 32.7 nM and 3180 nM, respectively.
As to `O=C(CO)N1CCc2c(c3ccc(Br)c(F)c3n2CC(F)(F)F)C1` [TDI-008130], the values for the IC50 on h-cGAS and in the experiment with THP1-Dual cells were 1120 nM and 25800 nM, respectively.
With `Cc1noc(-c2cc(Cl)c(Cl)c3[nH]c4c(c23)CN(C(=O)CO)CC4)n1` [TDI-008768], the figures for the IC50 on h-cGAS and in the experiment on THP1-Dual cells were 22.6 nM and 5800 nM, respectively.
As to `Cn1c2c(c3ccc(Cl)c(F)c31)CN(C(=O)CO)CC2` [TDI-006570], the values for the IC50 against h-cGAS and with THP1-Dual cells were 138 nM and > 40000 nM, respectively.
On to `N#CC1CCN(c2cc(Cl)c(F)c3[nH]c4c(c23)CN(C(=O)CO)CC4)C1` (centres unmarked) [TDI-008865], for which the half-maximal inhibitory concentration (IC50) against h-cGAS was 1580 nM; with THP1-Dual cells, > 10000 nM.
For `O=C(CO)N1CCc2[nH]c3c(F)c(Cl)cc(-c4cn[nH]c4)c3c2C1` [TDI-008185], in that order: 32.2 nM and 9900 nM.
In the case of `Cn1ccc(-c2cc(Br)c(F)c3[nH]c4c(c23)CN(C(=O)CO)CC4)n1` [TDI-008783], the concentration for half-maximal inhibition (IC50) was 17.2 nM against h-cGAS and 3410 nM in the experiment on THP1-Dual cells.
In the same order, the values of `CCn1ccc(-c2cc(Cl)c(Cl)c3[nH]c4c(c23)CN(C(=O)CO)CC4)n1` [TDI-008371] are 23.2 nM and 6520 nM.
Consider `Cn1ncc(-c2cc(Cl)c(F)c3[nH]c4c(c23)CN(C(=O)CO)CC4)n1` [TDI-009186], for which the concentration for half-maximal inhibition (IC50) against h-cGAS turned out to be 17.6 nM; in the experiment with THP1-Dual cells, 720 nM.
Consider `O=C(CO)N1CCc2[nH]c3c(F)c(Cl)cc(N4CCC(O)C4)c3c2C1` (centres unmarked) [TDI-008864], for which the figures for the IC50 against h-cGAS and in the experiment on THP1-Dual cells were 455 nM and > 10000 nM, respectively.
For the molecule `Cn1ncc(-c2cc(Cl)c(Cl)c3[nH]c4c(c23)CN(C(=O)CO)CC4)n1` [TDI-009007], the IC50 against h-cGAS worked out at 23.3 nM; with THP1-Dual cells it was 1150 nM.
As to `Cn1ccc(-c2cc(Cl)c(OCC(F)F)c3[nH]c4c(c23)CN(C(=O)CO)CC4)n1` [TDI-008796], the IC50 on h-cGAS was 984 nM; in the experiment with THP1-Dual cells, > 40000 nM.
The molecule `Cc1ncccc1-c1cc(Cl)c(Cl)c2[nH]c3c(c12)CN(C(=O)CO)CC3` [TDI-008446] came in with a 50% inhibitory concentration (IC50) against h-cGAS of 901 nM.
The molecule `Cc1cncc(-c2cc(Cl)c(Cl)c3[nH]c4c(c23)CN(C(=O)CO)CC4)c1` [TDI-008447] registered an IC50 at h-cGAS of 24.9 nM.
Consider `Cc1ccc2c3c([nH]c2c1C)CCN(C(=O)CO)C3` [TDI-006339], for which the IC50 against h-cGAS worked out at 7630 nM.
In turn, `O=C(CO)N1CCc2[nH]c3c(Cl)c(Cl)cc(-c4cncc(C(F)(F)F)c4)c3c2C1` [TDI-008455] came in with an IC50 at h-cGAS of 154 nM.
As to `COCCc1cc(Cl)c(Cl)c2[nH]c3c(c12)CN(C(=O)CO)CC3` [TDI-008438], the IC50 against h-cGAS turned out to be 112 nM.
`O=C(CO)N1CCc2[nH]c3c(Cl)c(F)ccc3c2C1` [TDI-006359] registered an IC50 against h-cGAS of 440 nM.
On h-cGAS, `O=C(CO)N1CCc2[nH]c3c(Cl)c(Cl)cc(CN4CCCCC4)c3c2C1` [TDI-008441] returned an IC50 of 5220 nM.
Turning to `COc1cc2c3c([nH]c2c(Cl)c1Cl)CCN(C(=O)CO)C3` [TDI-006528], the midpoint of inhibition at h-cGAS, the IC50, lay at 31 nM.
`O=C(CO)N1CCc2[nH]c3c(Cl)c(Cl)cc(-c4ccccc4O)c3c2C1` [TDI-008084] came in with an IC50 against h-cGAS of 258 nM.
Turning to `N#Cc1cc(Cl)c(Cl)c2[nH]c3c(c12)CN(C(=O)CO)CC3` [TDI-007586], on h-cGAS, the IC50 amounted to 352 nM.
As to `Cc1[nH]ncc1-c1cc(Cl)c(Cl)c2[nH]c3c(c12)CN(C(=O)CO)CC3` [TDI-008076], half-maximal inhibition against h-cGAS (IC50) required 11400 nM.
In turn, `COCC(=O)N1CCc2c(c3cc(Cl)cc(Cl)c3n2C)C1` [TDI-004581] had an IC50 at h-cGAS of 2410 nM.
`O=C(CO)N1CCc2[nH]c3c(Cl)c(Cl)cc(CN4CCCC4)c3c2C1` [TDI-008440] registered an IC50 against h-cGAS of 2230 nM.
Consider `O=C(CO)N1CCc2[nH]c3c(Cl)c(Cl)cc(-c4cccc(F)c4)c3c2C1` [TDI-008091], for which, on h-cGAS, the IC50 worked out at 31 nM.
Regarding `O=C(CO)N1CCc2[nH]c3c(Cl)c(Cl)cc(-c4ccsc4)c3c2C1` [TDI-008080], at h-cGAS, inhibition was half-maximal at 66.8 nM (IC50).
In the case of `Cc1c(-c2cc(Cl)c(Cl)c3[nH]c4c(c23)CN(C(=O)CO)CC4)cnn1C` [TDI-008094], the half-inhibitory concentration (IC50) against h-cGAS was 371 nM.
On the same count and under the same terms, next, `COc1cc(-c2cc(Cl)c(Cl)c3[nH]c4c(c23)CN(C(=O)CO)CC4)ccn1` [TDI-008106]: 49.3 nM; `COCC(=O)N1CCc2[nH]c3c(Br)c(Cl)ccc3c2C1` [TDI-005776]: 203 nM; `O=C(CO)N1CCc2[nH]c3c(Cl)c(Cl)cc(C4=CCOCC4)c3c2C1` [TDI-008079]: 890 nM.
For the molecule `COCC(=O)N1CCc2[nH]c3cc(Br)ccc3c2C1` [TDI-005855], 1740 nM corresponded to half-maximal inhibition against h-cGAS (IC50).
`COc1ccnc(-c2cc(Cl)c(Cl)c3[nH]c4c(c23)CN(C(=O)CO)CC4)c1` [TDI-008104]: inhibition on h-cGAS was half-maximal at 95.2 nM (IC50).
On to `COCC(=O)N1CCc2[nH]c3c(Cl)c(Br)ccc3c2C1` [TDI-005854], for which the concentration for half-maximal inhibition (IC50) on h-cGAS worked out at 198 nM.
At h-cGAS, `O=C(CO)N1CCc2[nH]c3c(Cl)c(Cl)cc(CN4CCOCC4)c3c2C1` [TDI-008442] showed an IC50 of 706 nM.
Turning to `C[C@H]1CN(C(=O)CO)Cc2c1[nH]c1c(Cl)c(Cl)ccc21` [TDI-007575], half-maximal inhibition at h-cGAS (IC50) was put at 174 nM.
As for `O=C(CO)N1CCc2[nH]c3c(Cl)c(Cl)ccc3c2CC1` [TDI-006183], half-maximal inhibition on h-cGAS (IC50) was put at 469 nM.
With `CN(C)Cc1cc(Cl)c(Cl)c2[nH]c3c(c12)CN(C(=O)CO)CC3` [TDI-008437], on h-cGAS, the midpoint of inhibition, the IC50, lay at 350 nM.
Consider `Cn1c2c(c3c(-c4cn[nH]c4)cc(Cl)c(Cl)c31)CN(C(=O)CO)CC2` [TDI-007945], for which, at h-cGAS, half-maximal inhibition (IC50) required 125 nM.
`COCC(=O)N1CCc2[nH]c3c(Cl)cccc3c2C1` [TDI-005323] registered an IC50 against h-cGAS of 5860 nM.
`Cc1nc(C)c(-c2cc(Cl)c(Cl)c3[nH]c4c(c23)CN(C(=O)CO)CC4)[nH]1` [TDI-008605] came in with a concentration for half-maximal inhibition (IC50) against h-cGAS of 568 nM.
The molecule `Nc1ccccc1-c1cc(Cl)c(Cl)c2[nH]c3c(c12)CN(C(=O)CO)CC3` [TDI-008082] had a half-inhibitory concentration (IC50) on h-cGAS of 322 nM.
`N#Cc1cc2c3c([nH]c2c(F)c1Cl)CCN(C(=O)CO)C3` [TDI-007542] showed a 50% inhibitory concentration (IC50) at h-cGAS of 1230 nM.
With `O=C(CO)N1CCc2[nH]c3c(Cl)c(Cl)cc(-c4cncc(CO)c4)c3c2C1` [TDI-008450], on h-cGAS, half-maximal inhibition (IC50) required 54.5 nM.
The same measure, in the same setting: the figure for `COCC(=O)N1CCc2c(c3c(-c4cn[nH]c4)cc(Cl)c(Cl)c3n2C)C1` [TDI-008026] is 203 nM.
Consider `O=C(CO)N1CCc2[nH]c3c(Cl)c(Cl)cc(-c4ccc5c(c4)OCO5)c3c2C1` [TDI-008457], for which half-maximal inhibition at h-cGAS (IC50) required 44.6 nM.
In the case of `O=C(CO)N1CCc2[nH]c3c(Cl)c(Cl)cc(-c4ccncc4)c3c2C1` [TDI-008072], inhibition against h-cGAS was half-maximal at 97.5 nM (IC50).
Same read-out and setting: next, `CCn1c2c(c3ccc(Br)c(F)c31)CN(C(=O)CO)CC2` [TDI-008062]: 1030 nM; `O=C(CO)N1CCc2[nH]c3c(F)c(Cl)ccc3c2C1` [TDI-006340]: 129 nM.
With `COc1ccc(-c2cc(Cl)c(Cl)c3[nH]c4c(c23)CN(C(=O)CO)CC4)nc1` [TDI-008105], on h-cGAS, the concentration for half-maximal inhibition (IC50) was 107 nM.
